Measured values as given in patent US9839642B2, “Beta-tetrazolyl-propionic acids as metallo-beta-lactamase inhibitors” (priority 2014, dated 2017).
Where two headings read alike, the source gives them in different places.

How the values were obtained:
[1] = test system: Serratia marcescens expressing IMP-1 (CL5741); assay: Antibiotic potentiation activity: synergistic concentration (MITC95) with imipenem, growth by OD600; type: cell-based
Method in brief: (§1)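 MITC95 = lowest inhibitor concentration giving 95% growth inhibition, read by absorbance after 22–24 h at 35° C. Compound range 200 μM to 0.195 μM, imipenem fixed at 1 or 4 μg/ml, bacteria in 1.1×CAMHB from saline suspension diluted 1:100.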

[2] = test system: Escherichia coli expressing NDM-1 (CLB30005); assay: as above; type: cell-based
Method in brief: as §1

[3] = test system: Klebsiella pneumoniae expressing VIM-1 (IHMA599644); assay: as above; type: cell-based
Method in brief: as §1

NDM-1 = NDM-1 (Klebsiella pneumoniae, UniProt C7C422); assay: Enzyme activity: determination of IC50, fluorescence assay with CCF2-FA substrate; type: biochemical; settings: CCF2-FA 1.25 μM, 2 hours at 25° C., read-out: NDM1 IC50
Method in brief: (§2)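 In pH 7 phosphate buffer (100 mM) with 10 μM ZnSO4 and 0.005% Tween-20, CCF2-FA substrate (1.25 μM final) was hydrolysed for 2 h at 25 °C by NDM-1, IMP-1 or VIM-1 at 1, 2 or 30 pM in the presence of inhibitor at 20–0.00063 μM. Emission 460 nm/excitation 405 nm; 4-parameter curve fit gave IC50.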

VIM-1 = VIM-1 (Pseudomonas aeruginosa, UniProt A0A0F7KYQ8); assay: as above; type: biochemical; settings: CCF2-FA 1.25 μM, 2 hours at 25° C., read-out: VIM1 IC50
Method in brief: as §2

IMP-1 = IMP-1 (Serratia marcescens, UniProt P52699); assay: as above; type: biochemical; settings: CCF2-FA 1.25 μM, 2 hours at 25° C., read-out: IMP1 IC50
Method in brief: as §2

[4] = S. marcescens CL5741 (IMP-1), 95% inhibition of growth
[5] = E. coli CLB30005 (NDM-1), 95% inhibition of growth
[6] = K. pneumoniae IHMA599644 (VIM-1), 95% inhibition of growth
[7] = 95% inhibition of bacterial growth, strain CL5741
[8] = 95% inhibition of bacterial growth, strain CLB30005
[9] = 95% inhibition of bacterial growth, strain IHMA599644

Sequence of IMP-1 (P52699 19-246, looked up, species assumed): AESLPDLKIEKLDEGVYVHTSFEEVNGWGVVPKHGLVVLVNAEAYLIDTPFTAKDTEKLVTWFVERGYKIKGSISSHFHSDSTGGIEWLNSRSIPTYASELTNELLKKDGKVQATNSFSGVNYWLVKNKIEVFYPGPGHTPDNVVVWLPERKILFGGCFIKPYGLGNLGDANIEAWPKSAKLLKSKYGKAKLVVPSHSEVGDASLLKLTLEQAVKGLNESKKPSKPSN
Sequence of NDM-1 (C7C422 29-270, looked up, species assumed): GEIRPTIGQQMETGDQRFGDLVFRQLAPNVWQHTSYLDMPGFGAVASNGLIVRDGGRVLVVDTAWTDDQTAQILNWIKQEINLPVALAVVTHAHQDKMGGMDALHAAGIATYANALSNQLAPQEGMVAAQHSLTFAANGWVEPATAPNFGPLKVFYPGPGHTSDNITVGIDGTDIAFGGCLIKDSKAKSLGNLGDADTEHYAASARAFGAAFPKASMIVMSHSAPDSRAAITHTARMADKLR

SMILES | IMP1 SM5741 MITC95 [1, 4] [µM] | NDM1 EC30005 MITC95 [2, 5] [µM] | VIM1 KP599644 MITC95 [3, 6] [µM] | IC50 (NDM-1; NDM-1 enzyme 1 pM) [nM] | IC50 (VIM-1; VIM-1 enzyme 30 pM) [nM] | IC50 (IMP-1; IMP-1 enzyme 2 pM) [nM] | IMP1 SM5741 MITC95 [1, 7] [µM] | NDM1 EC30005 MITC95 [2, 8] [µM] | VIM1 KP599644 MITC95 [3, 9] [µM] | IC50 (NDM-1; enzyme 1 pM) [nM] | IC50 (VIM-1; enzyme 30 pM) [nM] | IC50 (IMP-1; enzyme 2 pM) [nM]
CCC[C@H](C(=O)O)[C@H](Cc1ccc(-c2cnc3[nH]c(=O)[nH]c3c2)cc1)c1nnn[nH]1 [Example 247, (2S)-2-[(1S)-2-[4-(2-oxo-2,3-dihydro-1H-imidazo[4,5-b]pyridin-6-yl)phenyl]-1-(1H-tetrazol-5-yl)ethyl]pentanoic acid] | 16 | 31 | 100 | 13 | 0.64 | 92 |  |  |  |  |  | 
CCCC[C@@H](C(=O)O)[C@@H](Cc1ccc(-c2ccc(S(N)(=O)=O)cc2)cc1)c1nn[nH]n1 [Example 184, (2R)-2-[(1R)-2-(4′-sulfamoylbiphenyl-4-yl)-1-(2H-tetrazol-5-yl)ethyl]hexanoic acid] |  |  |  |  |  |  | 100 | >200 | >200 | 900 | 300 | 200
O=C(O)[C@@H](CCC1CCCCC1)[C@H](Cc1ccccc1)c1nnn[nH]1 [Example 11, (2S,3S)-2-(2-cyclohexylethyl)-4-phenyl-3-(1H-tetrazol-5-yl)butanoic acid] |  |  |  |  |  |  | 27 | 25 | >200 | 57 | 34 | 230
CC(C)CCC[C@@H](C(=O)O)[C@H](Cc1ccccc1)c1nnn[nH]1 [Example 2, (R)-6-methyl-2-((S)-2-phenyl-1-(1H-tetrazol-5-yl)ethyl)heptanoic acid] |  |  |  |  |  |  | 100 | >200 | >200 | 5400 | 8200 | 68
CCC[C@H](C(=O)O)[C@H](Cc1ccc(-c2ccc(C(C)N3CCOCC3)cc2)cc1)c1nn[nH]n1 (stereo partly drawn) [Example 192, (2S)-2-[(1S)-2-[4′-(1-morpholin-4-ylethyl)biphenyl-4-yl]-1-(2H-tetrazol-5-yl)ethyl]pentanoic acid] |  |  |  |  |  |  | 9.4 | 7.8 | 200 | 29 | 29 | 45
CCC[C@H](C(=O)O)[C@H](Cc1ccc(CCN2CCCCC2=O)cc1)c1nn[nH]n1 [Example 256, (2S)-2-[(1S)-2-{4-[2-(2-oxopiperidin-1-yl)ethyl]phenyl}-1-(2H-tetrazol-5-yl)ethyl]pentanoic acid] | 6.2 | 10.4 | 150 | 27 | 16 | 45 |  |  |  |  |  | 
CCC[C@H](C(=O)O)[C@H](Cc1ccc(-c2ccc(S(N)(=O)=O)cc2)cc1)c1nn[nH]n1 [Example 197, (2S)-2-[(1S)-2-(4′-sulfamoylbiphenyl-4-yl)-1-(2H-tetrazol-5-yl)ethyl]pentanoic acid] |  |  |  |  |  |  | 14 | 4.7 | 18.8 | 4.9 | 0.89 | 28
CCC[C@H](C(=O)O)[C@H](Cc1ccc(-c2cnc(C)c(C)n2)cc1)c1nnn[nH]1 [Example 244, (2S)-2-[(1S)-2-[4-(5,6-dimethylpyrazin-2-yl)phenyl]-1-(1H-tetrazol-5-yl)ethyl]pentanoic acid] | 25 | 9.4 | 38 | 66 | 4.8 | 250 |  |  |  |  |  | 
CCC[C@H](C(=O)O)[C@H](Cc1ccc(C[C@@H]2CCCOC2)cc1)c1nn[nH]n1 [Example 257, (2S)-2-[(1S)-2-{4-[(3S)-tetrahydro-2H-pyran-3-ylmethyl]phenyl}-1-(2H-tetrazol-5-yl)ethyl]pentanoic acid] | 6.2 | 7.3 | 200 | 13 | 14 | 33 |  |  |  |  |  | 
CCC[C@H](C(=O)O)[C@H](Cc1ccc(-c2cnc(N3CCCC3)s2)cc1)c1nn[nH]n1 [Example 196, (2S)-2-[(1S)-2-[4-(2-pyrrolidin-1-yl-1,3-thiazol-5-yl)phenyl]-1-(2H-tetrazol-5-yl)ethyl]pentanoic acid] |  |  |  |  |  |  | 14 | 7.8 | 125 | 9.5 | 4.1 | 45
